Test results reported in PubChem BioAssay (NCI).
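Test compounds were applied to cells in 96-well plates for 48 hours at 5 doses. GI50 = concentration required for 50% inhibition of growth. TGI: total growth inhibition.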

Columns and labels:
Test in all cases: NCI-60 cell line screen, 48 h
SF-295 CNS = tested on: SF-295 CNS
RPMI-8226 leukemia = tested on: RPMI-8226 leukemia
OVCAR-3 ovarian = tested on: OVCAR-3 ovarian
DU-145 prostate = tested on: DU-145 prostate
LOX IMVI melanoma = tested on: LOX IMVI melanoma
786-0 renal = tested on: 786-0 renal
MALME-3M melanoma = tested on: MALME-3M melanoma
MCF7 breast = tested on: MCF7 breast
HCT-15 colon = tested on: HCT-15 colon
UACC-257 melanoma = tested on: UACC-257 melanoma
SK-OV-3 ovarian = tested on: SK-OV-3 ovarian
TK-10 renal = tested on: TK-10 renal
CCRF-CEM leukemia = tested on: CCRF-CEM leukemia
T-47D breast = tested on: T-47D breast
UACC-62 melanoma = tested on: UACC-62 melanoma
SR leukemia = tested on: SR leukemia
SF-268 CNS = tested on: SF-268 CNS
SK-MEL-5 melanoma = tested on: SK-MEL-5 melanoma
CAKI-1 renal = tested on: CAKI-1 renal
MDA-MB-468 breast = tested on: MDA-MB-468 breast
EKVX NSCLC = tested on: EKVX NSCLC
RXF 393 renal = tested on: RXF 393 renal
SN12C renal = tested on: SN12C renal
HS 578T breast = tested on: HS 578T breast
NCI-H522 lung = tested on: NCI-H522 lung
HCC-2998 colon = tested on: HCC-2998 colon
KM12 colon = tested on: KM12 colon
OVCAR-5 ovarian = tested on: OVCAR-5 ovarian
SF-539 CNS = tested on: SF-539 CNS
MDA-MB-435 = tested on: MDA-MB-435
A498 renal = tested on: A498 renal
SK-MEL-2 melanoma = tested on: SK-MEL-2 melanoma
SNB-75 CNS = tested on: SNB-75 CNS

Q: Which GI50 (SF-295 CNS) does the source give for `Cn1cc(-c2cc(N)n3nc(-c4c[nH]c5ccc(Br)cc45)cc3n2)c2cccnc21` here?
A: 2.2 µM

Q: What about the TGI (SF-295 CNS) of the same compound?
A: 5.09 µM

Q: And the GI50 (RPMI-8226 leukemia)?
A: 4.04 µM

Q: What about the TGI (RPMI-8226 leukemia) of the same compound?
A: > 100 µM

Q: What about the GI50 (OVCAR-3 ovarian) of the same compound?
A: 1.67 µM

Q: And the TGI (OVCAR-3 ovarian)?
A: 3.12 µM

Q: What about the GI50 (DU-145 prostate) of the same compound?
A: 1.82 µM

Q: What about the TGI (DU-145 prostate) of the same compound?
A: 3.4 µM

Q: And the GI50 (LOX IMVI melanoma)?
A: 1.82 µM

Q: And the TGI (LOX IMVI melanoma)?
A: 3.21 µM

Q: What about the GI50 (786-0 renal) of the same compound?
A: 1.57 µM

Q: And the TGI (786-0 renal)?
A: 3 µM

Q: And the GI50 (MALME-3M melanoma)?
A: 1.52 µM

Q: And the TGI (MALME-3M melanoma)?
A: 2.91 µM

Q: What about the GI50 (MCF7 breast) of the same compound?
A: 3.01 µM

Q: What about the TGI (MCF7 breast) of the same compound?
A: > 100 µM

Q: And the GI50 (HCT-15 colon)?
A: 2.71 µM

Q: What about the TGI (HCT-15 colon) of the same compound?
A: 8.28 µM

Q: And the GI50 (UACC-257 melanoma)?
A: 1.75 µM

Q: What about the TGI (UACC-257 melanoma) of the same compound?
A: 3.48 µM

Q: And the GI50 (SK-OV-3 ovarian)?
A: 22.8 µM

Q: And the TGI (SK-OV-3 ovarian)?
A: 44.4 µM

Q: What about the GI50 (TK-10 renal) of the same compound?
A: 2.11 µM

Q: And the TGI (TK-10 renal)?
A: 7.4 µM

Q: And the GI50 (CCRF-CEM leukemia)?
A: 3.84 µM

Q: What about the TGI (CCRF-CEM leukemia) of the same compound?
A: > 100 µM

Q: And the GI50 (T-47D breast)?
A: 2.03 µM

Q: What about the TGI (T-47D breast) of the same compound?
A: 5.07 µM

Q: And the GI50 (UACC-62 melanoma)?
A: 1.73 µM

Q: And the TGI (UACC-62 melanoma)?
A: 3.17 µM

Q: What about the GI50 (SR leukemia) of the same compound?
A: 2.72 µM

Q: And the TGI (SR leukemia)?
A: > 100 µM

Q: What about the GI50 (SF-268 CNS) of the same compound?
A: 2.03 µM

Q: What about the TGI (SF-268 CNS) of the same compound?
A: 4.71 µM

Q: And the GI50 (SK-MEL-5 melanoma)?
A: 1.75 µM

Q: What about the TGI (SK-MEL-5 melanoma) of the same compound?
A: 3.28 µM

Q: What about the GI50 (CAKI-1 renal) of the same compound?
A: 1.8 µM

Q: What about the TGI (CAKI-1 renal) of the same compound?
A: 3.86 µM

Q: What about the GI50 (MDA-MB-468 breast) of the same compound?
A: 1.59 µM

Q: And the TGI (MDA-MB-468 breast)?
A: 3.24 µM

Q: And the GI50 (EKVX NSCLC)?
A: 2.34 µM

Q: What about the TGI (EKVX NSCLC) of the same compound?
A: 6.04 µM

Q: What about the GI50 (RXF 393 renal) of the same compound?
A: 1.65 µM

Q: And the TGI (RXF 393 renal)?
A: 3.24 µM

Q: What about the GI50 (SN12C renal) of the same compound?
A: 1.82 µM

Q: And the TGI (SN12C renal)?
A: 3.72 µM

Q: What about the GI50 (HS 578T breast) of the same compound?
A: 2.32 µM

Q: What about the TGI (HS 578T breast) of the same compound?
A: 5.61 µM

Q: And the GI50 (NCI-H522 lung)?
A: 1.85 µM

Q: What about the TGI (NCI-H522 lung) of the same compound?
A: 3.54 µM

Q: And the GI50 (HCC-2998 colon)?
A: 1.82 µM

Q: And the TGI (HCC-2998 colon)?
A: 3.27 µM

Q: And the GI50 (KM12 colon)?
A: 1.78 µM

Q: What about the TGI (KM12 colon) of the same compound?
A: 3.35 µM

Q: And the GI50 (OVCAR-5 ovarian)?
A: 1.41 µM

Q: And the TGI (OVCAR-5 ovarian)?
A: 3.24 µM

Q: What about the GI50 (SF-539 CNS) of the same compound?
A: 1.58 µM

Q: What about the TGI (SF-539 CNS) of the same compound?
A: 2.97 µM

Q: And the GI50 (MDA-MB-435)?
A: 1.7 µM

Q: What about the TGI (MDA-MB-435) of the same compound?
A: 3.16 µM

Q: What about the GI50 (A498 renal) of the same compound?
A: 1.72 µM

Q: What about the TGI (A498 renal) of the same compound?
A: 3.63 µM

Q: And the GI50 (SK-MEL-2 melanoma)?
A: 17.2 µM

Q: And the TGI (SK-MEL-2 melanoma)?
A: 40 µM

Q: And the GI50 (SNB-75 CNS)?
A: 1.29 µM

Q: And the TGI (SNB-75 CNS)?
A: 2.57 µM
